According to ChEMBL document CHEMBL3596107, “Design, synthesis and evaluation of a series of acyclic fleximer nucleoside analogues with anti-coronavirus activity” (Bioorg Med Chem Lett, 2015):

Tests used:
[1] = system: SARS-CoV; experiment: Antiviral activity against SARS-CoV assessed as inhibition of viral replication; format: functional, Severe acute respiratory syndrome-related coronavirus
[2] = Antiviral activity against Human coronavirus NL63 infected in African green monkey Vero118 cells assessed as inhibition of virus-induced cytopathic effect after 5 days by microscopic analysis; format: functional; conditions: Human coronavirus NL63, 120 h
[3] = Cytotoxicity against mock-infected African green monkey Vero118 cells assessed as inhibition of cell survival after 5 days by microscopic analysis; format: cell-based; conditions: chlorocebus sabaeus; for CC50: 120 h
[4] = Antiviral activity against SARS-CoV Frankfurt 1 infected in African green monkey Vero E6 cells assessed as inhibition of virus-induced cytopathic effect after 3 days by CellTiter 96 AQueous Non-Radioactive Cell Proliferation Assay; format: functional, cell-based, SARS coronavirus Frankfurt 1
[5] = Cytotoxicity against mock-infected African green monkey Vero E6 cells assessed as inhibition of cell survival after 3 days by CellTiter 96 AQueous Non-Radioactive Cell Proliferation Assay; format: cell-based; conditions: chlorocebus sabaeus, vero c1008, 72 h
[6] = system: Vero; experiment: Cytotoxicity against mock-infected African green monkey Vero cells assessed as inhibition of cell survival after 3 days by CellTiter 96 AQueous Non-Radioactive Cell Proliferation Assay; format: cell-based; conditions: chlorocebus sabaeus, 72 h
[7] = system: Middle East respiratory syndrome-related coronavirus; experiment: Antiviral activity against MERS-CoV EMC/2012 infected in human HuH7 cells assessed as inhibition of virus-induced cytopathic effect after 2 days by CellTiter 96 AQueous Non-Radioactive Cell Proliferation Assay; format: functional, cell-based; conditions: EMC/2012, Huh-7, 48 h
[8] = Cytotoxicity against mock-infected human HuH7 cells assessed as inhibition of cell survival after 2 days by CellTiter 96 AQueous Non-Radioactive Cell Proliferation Assay; format: cell-based; conditions: huh-7, 48 h
[9] = system: Middle East respiratory syndrome-related coronavirus; experiment: Antiviral activity against MERS-CoV EMC/2012 infected in African green monkey Vero cells assessed as inhibition of virus-induced cytopathic effect after 3 days by CellTiter 96 AQueous Non-Radioactive Cell Proliferation Assay; format: functional, cell-based; conditions: EMC/2012, Vero, 72 h

| Structure (SMILES) | INH [1] [µg/mL] | EC50 [2] [µM] | CC50 [3] [µM] | EC50 ([4]; vero e6) | CC50 [5] [µM] | CC50 [6] [µM] | EC50 [7] [µM] | CC50 [8] [µM] | EC50 [9] [µM] | EC50 ([4]; Severe acute respiratory syndrome-related coronavirus, Vero C1008, 72 h, read-out: EC50) [µM] | CC50 at 120 h ([3]; mock-infected Vero118 cells) [µM] |
| --- | --- | --- | --- | --- | --- | --- | --- | --- | --- | --- | --- |
| NC(=O)c1ncn([C@@H]2O[C@H](CO)[C@@H](O)[C@H]2O)n1 [RIBAVIRIN] | 500 |  |  |  |  |  |  |  |  |  |  |
| Nc1ncc(-c2cn(COCCO)cn2)c(O)n1 |  | > 200 | > 200 |  |  |  |  |  |  |  |  |
| COc1nc(N)ncc1-c1cn(COCCO)cn1 |  | 8.8 | 120 | Not Active | 138 | 71 | 27 | 149 | 23 |  |  |
| OCCOCn1cnc(-c2cnc(O)nc2O)c1 |  | 92 | > 200 |  |  |  |  |  |  |  |  |
| Nc1nc2c(ncn2COCCO)c(=O)[nH]1 [ACYCLOVIR] |  | > 100 |  |  | > 1000 | > 1000 | > 1000 | > 1000 | > 1000 | > 1000 | > 100 |
